From patent US20240254129A1, “HETEROCYCLIC COMPOUNDS AND USES THEREOF” (Kumquat Biosciences Inc., priority 2021, published 2024)

Tests used:
[1] = molecular target: T1, wildtype Kras / hSOS1 (Homo sapiens, UniProt P01116); experiment: HTRF assay, wildtype Kras / SOS1 interaction; type: binding; conditions: compound nos. 401-703; read-out: IC50 against wildtype Kras
T1 construct: made in house; host or cells: E. coli BL21 (DE3)
In short: (§1)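 Buffer ~5 mM HEPES pH 7.4, ~150 mM NaCl, ~1 mM DTT, 0.05% BSA, 0.0025% Igepal. Cpd in DMSO + Ras/donor mix + SOS1/acceptor mix; ≥10 min; HTRF 665/620 ratio → IC50.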

[2] = molecular target: GST-tagged K-Ras mutant / His-tagged hSOS1 (Homo sapiens, UniProt P01116); experiment: HTRF assay, K-Ras mutant / SOS1 interaction; type: binding; conditions: compound nos. 401-703; read-out: IC50 against mutant Kras
In short: as §1

T1 sequence (P01116 1-188 isoform P01116-2): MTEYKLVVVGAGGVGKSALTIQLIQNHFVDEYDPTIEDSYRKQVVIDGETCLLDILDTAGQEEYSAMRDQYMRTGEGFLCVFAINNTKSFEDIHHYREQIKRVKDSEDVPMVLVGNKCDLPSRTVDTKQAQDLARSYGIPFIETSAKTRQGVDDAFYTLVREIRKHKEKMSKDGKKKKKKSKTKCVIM
GST-tagged K-Ras mutant / His-tagged hSOS1, sequence (P01116 whole entry G12D, form open): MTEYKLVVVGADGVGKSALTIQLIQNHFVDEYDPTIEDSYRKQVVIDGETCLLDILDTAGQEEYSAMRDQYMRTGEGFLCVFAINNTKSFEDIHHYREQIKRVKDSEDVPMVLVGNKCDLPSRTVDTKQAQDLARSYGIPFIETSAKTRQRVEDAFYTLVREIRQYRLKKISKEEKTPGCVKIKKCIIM

| SMILES | IC50 [1] [µM] | IC50 [2] [µM] |
| --- | --- | --- |
| Fc1c(N2CCCc3ccccc32)ccc2c(N3CCCCCC3)nc(OCC34CCCN3CCC4)nc12 [Compound 580, 4-(azepan-1-yl)-7-(3,4-dihydroquinolin-1(2H)-yl)-8-fluoro-2-((tetrahydro-1H-pyrrolizin-7a(5H)-yl)meth-oxy)quinazoline] | > 0.5 | > 0.5 |
| CN1CCC[C@H]1COc1nc(N2CCCC(C(N)=O)CC2)c2cc(Cl)c(-c3cccc4sc(N)nc34)c(F)c2n1 (stereo partly drawn) [Compound 581, 1-(7-(2-aminobenzo[d]-thiazol-4-yl)-6-chloro-8-fluoro-2-(((S)-1-methyl-pyrrolidin-2-yl)methoxy)-quinazolin-4-yl)azepane-4-carboxamide] | > 0.5 | < 0.5 |
| N#Cc1c(N)sc2c(F)ccc(-c3c(Cl)cc4c(N5CC6CCC(C5)O6)nc(OC[C@@]56CCCN5C[C@H](F)C6)nc4c3F)c12 [Compound 583, 4-(4-(8-oxa-3-azabicyclo-[3.2.1]-octan-3-yl)-6-chloro-8-fluoro-2-(((2R,7aS)-2-fluorotetrahydro-1H-pyrrol-izin-7a(5H)-yl)methoxy)-quinazolin-7-yl)-2-amino-7-fluorobenzo[b]thiophene-3-carbonitrile] | > 0.5 | < 0.5 |
| Oc1ccc2c(c1)N(c1ccc3c(N4CCCCCC4)nc(OCC45CCCN4CCC5)nc3c1F)CCC2 [Compound 584, 1-(4-(azepan-1-yl)-8-fluoro-2-((tetrahydro-1H-pyrrol-izin-7a(5H)-yl)methoxy)-quinazolin-7-yl)-1,2,3,4-tetrahydroquinolin-7-ol] | > 0.5 | > 0.5 |
| Nc1nc2c(-c3c(Cl)cc4c(N5CC6CCC(C5)N6)nc(OCC5(CN6CC[C@@H](F)C6)CC5)nc4c3F)ccc(F)c2s1 [Compound 586, 4-(4-(3,8-diazabicyclo-[3.2.1]octan-3-yl)-6-chloro-8-fluoro-2-((1-(((R)-3-fluoropyrrolidin-1-yl)meth-yl)cyclopropyl)methoxy)-quinazolin-7-yl)-7-fluoro-benzo[d]thiazol-2-amine] | > 0.5 | < 0.5 |
| Nc1nc2c(-c3c(Cl)cc4c(N5CC6CCC(C5)N6)nc(OC[C@@]56CCCN5C[C@H](F)C6)nc4c3F)cccc2o1 [Compound 588, 4-(4-(3,8-diazabicyclo-[3.2.1]-octan-3-yl)-6-chloro-8-fluoro-2-(((2R,7aS)-2-fluorotetrahydro-1H-pyrrol-izin-7a(5H)-yl)methoxy)-quinazolin-7-yl)benzo[d]-oxazol-2-amine] | > 0.5 | < 0.5 |
| Nc1c(Cl)cccc1-c1c(Cl)cc2c(N3CC4CCC(C3)N4)nc(OCC34CCCN3CCC4)nc2c1F [Compound 589, 2-(4-(3,8-diazabicyclo-[3.2.1]octan-3-yl)-6-chloro-8-fluoro-2-((tetrahydro-1H-pyrrolizin-7a(5H)-yl)meth-oxy)quinazolin-7-yl)-6-chloroaniline] | > 0.5 | > 0.5 |
| Nc1nc2c(-c3cc4nc(OCC56CCCN5CCC6)nc(N5CC6CCC(C5)N6)c4cc3Cl)ccc(F)c2s1 [Compound 591, 4-(4-(3,8-diazabicyclo-[3.2.1]octan-3-yl)-6-chloro-2-((tetrahydro-1H-pyrrol-izin-7a(5H)-yl)methoxy)-quinazolin-7-yl)-7-fluoro-benzo[d]thiazol-2-amine] | > 0.5 | < 0.5 |
| N#Cc1c(N)sc2c(F)ccc(-c3c(Cl)cc4c(N5CCCC6(CCNC6)C5)nc(OC[C@@]56CCCN5C[C@H](F)C6)nc4c3F)c12 (stereo partly drawn) [Compound 592, 2-amino-4-(6-chloro-8-fluoro-2-(((2R,7aS)-2-fluorotetrahydro-1H-pyrrol-izin-7a(5H)-yl)methoxy)-4-(2,7-diazaspiro[4.5]decan-7-yl)quinazolin-7-yl)-7-fluorobenzo[b]thiophene-3-carbonitrile] | > 0.5 | < 0.5 |
| CN1CCC[C@H]1COc1nc(N2CCCC(Cl)CC2)c2cc(Cl)c(-c3cccc4sc(N)nc34)c(F)c2n1 (stereo partly drawn) [Compound 593, 4-(6-chloro-4-(4-chloro-azepan-1-yl)-8-fluoro-2-(((S)-1-methylpyrrolidin-2-yl)methoxy)quinazolin-7-yl)benzo[d]thiazol-2-amine] | > 0.5 | < 0.5 |

Further lines, results first:

| IC50 [1] [µM] | IC50 [2] [µM] | SMILES |
| --- | --- | --- |
| > 0.5 | < 0.5 | CN1CCC[C@H]1COc1nc(N2CC3CCC(C2)N3)c2cc(Cl)c(-c3cccc4sc(N)nc34)c(F)c2n1 [Compound 565, 4-(4-(3,8-diazabicyclo-[3.2.1]octan-3-yl)-6-chloro-8-fluoro-2-(((S)-1-methyl-pyrrolidin-2-yl)methoxy)-quinazolin-7-yl)benzo[d]-thiazol-2-amine] |
| > 0.5 | < 0.5 | Nc1nc2c(-c3c(Cl)cc4c(N5CC6CCNCC6C5)nc(OC[C@@]56CCCN5C[C@H](F)C6)nc4c3F)ccc(F)c2s1 (stereo partly drawn) [Compound 566, 4-(6-chloro-8-fluoro-2-(((2R,7aS)-2-fluorotetra-hydro-1H-pyrrolizin-7a(5H)-yl)methoxy)-4-(octahydro-2H-pyrrolo[3,4-c]pyridin-2-yl)quinazolin-7-yl)-7-fluoro-benzo[d]thiazol-2-amine] |
| > 0.5 | > 0.5 | Cc1ccnc(C(C)C)c1-n1c(=O)nc(N2CC3CCC(C2)N3)c2cc(F)c(-c3cc(O)cc4ccccc34)nc21 [Compound 567, 4-(3,8-diazabicyclo[3.2.1]-octan-3-yl)-6-fluoro-7-(3-hydroxynaphthalen-1-yl)-1-(2-isopropyl-4-methylpyri-din-3-yl)pyrido[2,3-d]pyrim-idin-2(1H)-one] |
| > 0.5 | < 0.5 | Nc1nc2c(-c3c(Cl)cc4c(N5C6CCNCC5CC6)nc(OC[C@@]56CCCN5C[C@H](F)C6)nc4c3F)ccc(F)c2s1 (stereo partly drawn) [Compound 568, 4-(4-(3,9-diazabicyclo-[4.2.1]-nonan-9-yl)-6-chloro-8-fluoro-2-(((2R,7aS)-2-fluorotetrahydro-1H-pyrrol-izin-7a(5H)-yl)methoxy)-quinazolin-7-yl)-7-fluoro-benzo[d]thiazol-2-amine] |
| > 0.5 | < 0.5 | Nc1nc2c(-c3c(Cl)cc4c(N5CC6CNCC6C5)nc(OC[C@@]56CCCN5C[C@H](F)C6)nc4c3F)ccc(F)c2s1 (stereo partly drawn) [Compound 569, 4-(6-chloro-8-fluoro-2-(((2R,7aS)-2-fluorotetra-hydro-1H-pyrrolizin-7a(5H)-yl)methoxy)-4-(hexahydro-pyrrolo[3,4-c]pyrrol-2(1H)-yl)quinazolin-7-yl)-7-fluoro-benzo[d]thiazol-2-amine] |
| > 0.5 | < 0.5 | N#CCN1C2CCC1CN(c1nc(OC[C@@]34CCCN3C[C@H](F)C4)nc3c(F)c(-c4ccc(F)c5sc(N)c(C#N)c45)c(Cl)cc13)C2 [Compound 570, 2-amino-4-(6-chloro-4-((1R,5S)-8-(cyanomethyl)-3,8-diazabicyclo[3.2.1]-octan-3-yl)-8-fluoro-2-(((2R,7aS)-2-fluorotetra-hydro-1H-pyrrolizin-7a(5H)-yl)methoxy)quinazolin-7-yl)-7-fluorobenzo[b]thio-phene-3-carbonitrile] |
| > 0.5 | > 0.5 | Nc1nc2c(-c3c(Cl)cc4c(N5CC6CCC(C5)N6)nc(OCC56CCCC5CCC6)nc4c3F)cccc2s1 (stereo not shown) [Compound 571, 4-(4-(3,8-diazabicyclo-[3.2.1]octan-3-yl)-6-chloro-8-fluoro-2-((hexahydro-pentalen-3a(1H)-yl)meth-oxy)quinazolin-7-yl)benzo-[d]thiazol-2-amine] |
| > 0.5 | < 0.5 | CN1CCC[C@H]1COc1nc(N2CCCC(F)C(F)C2)c2cc(Cl)c(-c3cccc4sc(N)nc34)c(F)c2n1 (stereo partly drawn) [Compound 573, 4-(6-chloro-4-(3,4-difluoro-azepan-1-yl)-8-fluoro-2-(((S)-1-methylpyrrolidin-2-yl)methoxy)quinazolin-7-yl)-benzo[d]thiazol-2-amine] |
| > 0.5 | < 0.5 | N#Cc1c(N)sc2c(F)ccc(-c3c(Cl)cc4c(N5CCCS(=O)(=O)CC5)nc(OC[C@@]56CCCN5C[C@H](F)C6)nc4c3F)c12 [Compound 574, 2-amino-4-(6-chloro-4-(1,1-dioxido-1,4-thiazepan-4-yl)-8-fluoro-2-(((2R,7aS)-2-fluorotetrahydro-1H-pyrrol-izin-7a(5H)-yl)methoxy)-quinazolin-7-yl)-7-fluoro-benzo[b]thiophene-3-carbonitrile] |
| > 0.5 | < 0.5 | CNCCN1CCCN(c2nc(OCC34CCCN3CCC4)nc3c(F)c(-c4ccc(F)c5sc(N)nc45)c(Cl)cc23)CC1 [Compound 575, 4-(6-chloro-8-fluoro-4-(4-(2-(methylamino)ethyl)-1,4-diazepan-1-yl)-2-((tetra-hydro-1H-pyrrolizin-7a(5H)-yl)methoxy)quinazolin-7-yl)-7-fluorobenzo[d]thiazol-2-amine] |
| > 0.5 | < 0.5 | Nc1nc2c(-c3c(Cl)cc4c(N5CCN(S(=O)(=O)C6CC6)CC(F)(F)C5)nc(OC[C@@]56CCCN5C[C@H](F)C6)nc4c3F)ccc(F)c2s1 [Compound 576] |
| > 0.5 | < 0.5 | Nc1nc2c(-c3c(Cl)cc4c(N5CC6CCC(C5)N6)nc(OCC56CCCN5CCC6)nc4c3F)c(F)ccc2s1 [Compound 578, 4-(4-(3,8-diazabicyclo-[3.2.1]octan-3-yl)-6-chloro-8-fluoro-2-((tetrahydro-1H-pyrrolizin-7a(5H)-l)meth-oxy)quinazolin-7-yl)-5-fluorobenzo[d]thiazol-2-amine] |
| > 0.5 | > 0.5 | Fc1c(-c2cccc3sccc23)c(Cl)cc2c(N3CC4CCC(C3)N4)nc(OC[C@@]34CCCN3C[C@H](F)C4)nc12 [Compound 579, 7-(benzo[b]thiophen-4-yl)-4-(3,8-diazabicyclo[3.2.1]-octan-3-yl)-6-chloro-8-fluoro-2-(((2R,7aS)-2-fluorotetrahydro-1H-pyrrol-izin-7a(5H)-yl)methoxy)-quinazoline] |
